From patent EP4818178A1, “PREPARATION AND USE OF PYRIMIDOTHIOPYRANONE KRAS MUTANT PROTEIN INHIBITOR” (Ya Therapeutics Inc, priority 2024, dated 2025)

Assays:
[1] = target: KRasG12D (Homo sapiens, UniProt P01116, G12D); test: KRAS inhibitory activity test, TR-FRET (inhibition of binding of KRasG12D to GTP, SOS/GTP nucleotide exchange); type: biochemical; settings: read-out: IC50 values of the compounds for inhibiting KRAS enzymes, G12D
Outline: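 KRasG12D preloaded with Bodipy-GDP plus Tb-streptavidin (3 nM Kras/0.5 nM Tb-SA/30 nM Bodipy-GDP) incubated 1 h at rt with compound (10-point 3-fold series). SOS/GTP mixture then added for 1 h at rt. TR-FRET signal read; IC50 calculated.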

[2] = system: p-ERK in HCT116 (G13D) cells; test: Cellular p-ERK inhibition assay (HTRF); type: cell-based; settings: Homo sapiens, HCT-116, 1 hour with compound, read-out: IC50 (nM) of the compounds on the inhibition of p-ERK in tumor cells, HCT11 6
Experimental: (§1) Cells were seeded in clear 96-well cell culture plates, with 80 µL of cell suspension per well, containing 8000 cells per well. The plates were incubated overnight at 37°C using a CO2 incubator. 2 µL of the compound was added to 78 µL of cell culture medium, mixed well, and then 20 µL of the compound solution was added to the corresponding wells of the cell culture plate. The plates were returned to the CO2 incubator for another hour. After incubation, the cell supernatant was discarded, and 50 µL of the […] was added to the cell culture plate. Add 1X cell lysis buffer to each well and incubate at room temperature with shaking for 30 minutes. Dilute Phospho-ERK1/2 Eu Cryptate antibody and Phospho-ERK1/2 d2 antibody 20-fold using detection buffer. Transfer 16 µL of cell lysis supernatant to each well in a new 384 white microplate, then add 2 µL of Phospho-ERK1/2 Eu Cryptate antibody diluent and 2 µL of Phospho-ERK1/2 d2 antibody diluent. Incubate at room temperature for at least 4 hours. After incubation, read the HTRF excitation (320 nm) and emission (615 nm, 665 nm) using a multilabel analyzer. Calculate the IC50 of the analyte. "++++" indicates IC50≤ 10 nM; "+++" indicates 10 nM < IC50≤ 100 nM; "++" indicates 100 nM < IC50≤ 2000 nM; "+" indicates 2000 nM < IC50. Table 2. IC50 (nM) of the compounds on the inhibition of p-ERK in tumor cells.

[3] = system: p-ERK in AsPC-1 (G12D) cells; test: Cellular p-ERK inhibition assay (HTRF); type: cell-based; settings: Homo sapiens, ASPC1, 1 hour with compound, read-out: IC50 (nM) of the compounds on the inhibition of p-ERK in tumor cells, AsPC-1
Experimental: as §1

[4] = system: p-ERK in PSN-1 (G12R) cells; test: Cellular p-ERK inhibition assay (HTRF); type: cell-based; settings: Homo sapiens, PSN1, 1 hour with compound, read-out: IC50 (nM) of the compounds on the inhibition of p-ERK in tumor cells, PSN-1
Experimental: as §1

[5] = system: p-ERK in A549 (G12S) cells; test: Cellular p-ERK inhibition assay (HTRF); type: cell-based; settings: 1 hour with compound
Experimental: as §1

[6] = system: p-ERK in NCI-H727 (G12V) cells; test: Cellular p-ERK inhibition assay (HTRF); type: cell-based; settings: Homo sapiens, 1 hour with compound, read-out: IC50 (nM) of the compounds on the inhibition of p-ERK in tumor cells, NCI-H72 7
Experimental: as §1

[7] = system: p-ERK in NCI-H358 (G12C) cells; test: Cellular p-ERK inhibition assay (HTRF); type: cell-based; settings: Homo sapiens, 1 hour with compound, read-out: IC50 (nM) of the compounds on the inhibition of p-ERK in tumor cells, NCI-H35 8
Experimental: as §1

[8] = system: p-ERK in MKN1 (WTdep) cells; test: Cellular p-ERK inhibition assay (HTRF); type: cell-based; settings: Homo sapiens, MKN-1, 1 hour with compound, read-out: IC50 (nM) of the compounds on the inhibition of p-ERK in tumor cells, MKN 1
Experimental: as §1

[9] = system: p-ERK in NCI-H460 (Q61H) cells; test: Cellular p-ERK inhibition assay (HTRF); type: cell-based; settings: Homo sapiens, 1 hour with compound, read-out: IC50 (nM) of the compounds on the inhibition of p-ERK in tumor cells, NCI-H46 0
Experimental: as §1

Sequence of KRasG12D (P01116 1-188 isoform P01116-2 G12D): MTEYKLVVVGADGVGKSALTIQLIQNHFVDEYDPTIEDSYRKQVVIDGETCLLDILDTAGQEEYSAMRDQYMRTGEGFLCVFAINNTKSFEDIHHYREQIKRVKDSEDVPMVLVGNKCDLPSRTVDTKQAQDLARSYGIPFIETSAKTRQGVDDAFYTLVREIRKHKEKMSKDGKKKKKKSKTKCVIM

Row | Structure (SMILES) | IC50 [1] | IC50 [2] | IC50 [3] | IC50 [4] | IC50 (nM) of the compounds on the inhibition of p-ERK in tumor cells, A54 9 [5] | IC50 [6] | IC50 [7] | IC50 [8] | IC50 [9]
1 | Cc1cc(N)nc(C2Cc3nc(OC[C@@]45CCCN4C[C@H](F)C5)nc(N4C[C@H]5CC[C@@H](C4)N5)c3CS2(=O)=O)c1C(F)(F)F (stereo partly drawn) [Compound 3, 7-(6-amino-4-methyl-3-(trifluoromethyl)pyridin-2-yl)-4-((1R,5S)-3,8-diazabicyclo[3. 2.1]octane-3-yl)-2-(((2R,7AS)-2-fluorotetrahydro-1H-pyrrolazin-7a(5H)-yl)methoxy) -7,8-dihydro-5H-thiopyrano[4,3-d]pyrimidine-6,6-dioxide] | ≤ 10 nM | ≤ 10 nM | ≤ 10 nM | 100 to 2000 nM |  |  |  |  | 
2 | Cc1cc(N)c(F)c(C2Cc3nc(OC[C@@]45CCCN4C[C@H](F)C5)nc(N4CCC[C@@](C)(O)C4)c3CS2(=O)=O)c1C(F)(F)F (stereo partly drawn) [Compound 5, 7-(3-amino-2-fluoro-5-methyl-6-(trifluoromethyl)phenyl)-2-(((2R,7AS)-2-fluorotetra hydro-1H-pyrrolazin-7a(5H)-yl)methoxy)-4-((R)-3-hydroxy-3-methylpiperidin-1-yl)-7,8-dihydro-5H-thiopyrano[4,3-d]pyrimidine 6,6-dioxide] | ≤ 10 nM | ≤ 10 nM | ≤ 10 nM | 100 to 2000 nM | +++ + | ≤ 10 nM | ≤ 10 nM | ≤ 10 nM | ≤ 10 nM
3 | Cc1cc(N)nc(C2Cc3nc(OC[C@@]45CCCN4C[C@H](F)C5)nc(N4CCC[C@@](C)(O)C4)c3CS2(=O)=O)c1C(F)(F)F (stereo partly drawn) [Compound 7, 7-(6-amino-4-methyl-3-(trifluoromethyl)pyridin-2-yl)-2-(((2R,7AS)-2-fluorotetrahydro-1H-pyrrolazin-7a(5H)-yl)methoxy)-4-((R)-3-hydroxy-3-methylpiperidin-1-yl)-7,8-d ihydro-5H-thiopyrano[4,3-d]pyrimidine 6,6-dioxide] | ≤ 10 nM | ≤ 10 nM | ≤ 10 nM | 100 to 2000 nM |  |  |  |  | 
4 | Cc1cc(O)c(F)c(C2Cc3nc(OC[C@@]45CCCN4C[C@H](F)C5)nc(N4CCC[C@@](C)(O)C4)c3CS2(=O)=O)c1C(F)(F)F (stereo partly drawn) [Compound 6, 7-(2-fluoro-3-hydroxy-5-methyl-6-(trifluoromethyl)phenyl)-2-(((2R,7AS)-2-fluorotetrahydro-1H-pyrrolazin-7a(5H)-yl)methoxy)-4-((R)-3-hydroxy-3-methylpiperidin-1-yl)-7,8-dihydro-5H-thiopyrano[4,3-d]pyrimidine 6,6-dioxide] | ≤ 10 nM | ≤ 10 nM | ≤ 10 nM | 100 to 2000 nM | +++ + | ≤ 10 nM | ≤ 10 nM | ≤ 10 nM | ≤ 10 nM
5 | Cc1cc(O)nc(C2Cc3nc(OC[C@@]45CCCN4C[C@H](F)C5)nc(N4C[C@H]5CC[C@@H](C4)N5)c3CS2(=O)=O)c1C(F)(F)F (stereo partly drawn) [Compound 4, 4-((1R,5S)-3,8-diazabicyclo[3.2.1]octane-3-yl)-2-(((2R,7AS)-2-fluorotetrahydro-1H-pyrrolazin-7a(5H)-yl)methoxy)-7-(6-hydroxy-4-methyl-3-(trifluoromethyl)pyridin-2-yl)-7,8-dihydro-5H-thiopyrano[4,3-d]pyrimidine-6,6-dioxide] | ≤ 10 nM | ≤ 10 nM | ≤ 10 nM | 100 to 2000 nM |  |  |  |  | 
6 | Cc1cc(N)c(F)c(C2Cc3nc(OC[C@@]45CCCN4C[C@H](F)C5)nc(N4C[C@H]5CC[C@@H](C4)N5)c3CS2(=O)=O)c1C(F)(F)F (some centres unmarked) [Compound 1] | ≤ 10 nM | ≤ 10 nM | ≤ 10 nM | 100 to 2000 nM | +++ + | ≤ 10 nM | ≤ 10 nM | ≤ 10 nM | ≤ 10 nM
7 | Cc1cc(O)c(F)c(C2Cc3nc(OC[C@@]45CCCN4C[C@H](F)C5)nc(N4C[C@H]5CC[C@@H](C4)N5)c3CS2(=O)=O)c1C(F)(F)F (stereo partly drawn) [Compound 2, 4-((1R,5S)-3,8-diazabicyclo[3.2.1]octane-3-yl)-7-(2-fluoro-3-hydroxy-5-methyl-6-(trifluoromethyl)phenyl)-2-(((2R,7AS)-2-fluorotetrahydro-1H-pyrrolazin-7a(5H)-yl)methoxy)-7,8-dihydro-5H-thiopyrano[4,3-d]pyrimidine-6,6-dioxide] | ≤ 10 nM | ≤ 10 nM | ≤ 10 nM | 100 to 2000 nM |  |  |  |  | 
8 | Cc1cc(O)nc(C2Cc3nc(OC[C@@]45CCCN4C[C@H](F)C5)nc(N4CCC[C@@](C)(O)C4)c3CS2(=O)=O)c1C(F)(F)F (stereo partly drawn) [Compound 8, 2-(((2R,7AS)-2-fluorotetrahydro-1H-pyrrolazin-7a(5H)-yl)methoxy)-4-((R)-3-hydroxy-3-methylpiperidin-1-yl)-7-(6-hydroxy-4-methyl-3-(trifluoromethyl)pyridin-2-yl)-7,8-dihydro-5H-thiopyrano[4,3-d]pyrimidine-6,6-dioxide] | ≤ 10 nM | ≤ 10 nM | ≤ 10 nM | 100 to 2000 nM |  |  |  |  | 
